Test results as given in patent US9458141B2, “Low molecular weight thyroid stimulating hormone receptor (TSHR) agonists” (The United States of America, as represented by the …, priority 2008, dated 2016).
Read-outs that look alike come from different tables or passages of the source.

Molecular target: T1, human TSHR (Homo sapiens, UniProt P16473)
T1 construct: expressed in transfected cells
Experiment: Homogeneous Time Resolved Fluorescence (HTRF) cAMP assay, TSHR cell line
Assay type: cell-based
Settings: for AC50: TSHR cell line, 30 minute incubation; for Emax: read-out: Maximum Activity compared to TSH, 100% activity = response of 30 mU/ml TSH, 0% = DMSO control; for Maximum Activity compared to TSH: 100% activity = response of 30 mU/ml TSH, 0% = DMSO control, in %; call rule not given here
Description: Generation of Stable Cell-Lines Expressing TSHR, LHCGR or FSHR.
cDNA for human TSHR was amplified by PCR from hTSHR-pSVL (1) and inserted into the pcDNA3.1(−)/hygromycin vector using restriction sites XhoI and BamHI. cDNA for human LHCGR was amplified by PCR from hLHR-pGS5 (2) and was inserted into the pcDNA3.1(+)/hygromycin vector using restriction sites BamHI and XhoI. The FSHR cDNA in pcDNA3.1 was obtained from the Missouri S&T cDNA Resource Center (www.cDNA.org) and was subcloned into the pcDNA3.1(−)/hygromycin vector. Constructs were confirmed by sequencing (MWG Biotech). HEK-EM 293 cells were transfected with the cDNA of TSHR, LHCGR or FSHR using FuGENE 6 Transfection reagent (Roche Diagnostics) according to the manufacturer's protocol. Two days after transfection cells were passaged and grown in Dulbecco's modified Eagle's Medium (DMEM) supplemented with 10% fetal bovine serum, 100 units/ml penicillin and 10 μg/ml streptomycin (Life Technologies Inc.) and with hygromycin (250 μg/ml) as a selection marker. After 7 to 10 days hygromycin-resistant clones were selected, and after a few days of further growth submitted for a cAMP assay to identify clones that stably express the appropriate receptor. Cell Culture. Cells stably expressing TSHR, LHCGR or FSHR and parental HEK 293 cells were maintained in DMEM medium containing 10% FBS, 100 units/ml Penicillin, 100 μg/ml Streptomycin, at 37° C. in 5% CO2. For the cells lines stably expressing TSHR, LHCGR or FSHR, additional 250 μg/ml Hygromycin was added during the cell culture. The cells were seeded at a density of 3 to 4 million cells in a T175 flask containing 35 ml of media and were allowed to grow for 3 days to reach 80-90% confluence. A flask of HEK 293 cells at this density generally yielded 30 million cells total. Homogeneous Time Resolved Fluorescence (HTRF) cAMP Assay. Compounds were assayed using a HTRF cAMP detection kit (Cisbio, Bedford, Mass.) on both TSHR cell line and parental cell line. Briefly, 750 cells were plated in 2.5 μl/well of complete media (DMEM containing 10% FCS) in 1536 well solid bottom white plates and 20 nl/well compound in DMSO solution or controls was added. Following 30 minute incubation at room temperature, 2.5 μl/well of labeled d2 cAMP and 2.5 μl/well of anti-cAMP antibody (both diluted 1:20 in lysis buffer) were added to each well using a flying reagent dispenser (Aurora Discovery, San Diego). Plates were measured using the Envision plate reader (PerkinElmer, Boston, Mass.) with excitation at 330 nm and emissions of 615 nm and 660 nm. Compound Preparation. […] Data Analysis. […] The EC50 values of compounds were calculated from the concentration-response curves by nonlinear regression analysis using Prism software (GraphPad Software, San Diego, Calif.). Confirmatory cAMP Assay and Test for Selectivity Towards TSHR 50,000 cells/well were plated in complete media (DMEM containing 10% FCS) in 96 well plates. […] Following aspiration of the medium after incubation with compounds, cells were lysed using lysis buffer of the cAMP-Screen Direct™ System (Applied Biosystems, Cat # CSD200). The cAMP content of the cell lysate was determined using the manufacturer's protocol. […] Below is a List of Compounds that were Assayed via the Homogeneous Time Resolved Fluorescence (HTRF) cAMP Assay.

T1 sequence (P16473 21-764): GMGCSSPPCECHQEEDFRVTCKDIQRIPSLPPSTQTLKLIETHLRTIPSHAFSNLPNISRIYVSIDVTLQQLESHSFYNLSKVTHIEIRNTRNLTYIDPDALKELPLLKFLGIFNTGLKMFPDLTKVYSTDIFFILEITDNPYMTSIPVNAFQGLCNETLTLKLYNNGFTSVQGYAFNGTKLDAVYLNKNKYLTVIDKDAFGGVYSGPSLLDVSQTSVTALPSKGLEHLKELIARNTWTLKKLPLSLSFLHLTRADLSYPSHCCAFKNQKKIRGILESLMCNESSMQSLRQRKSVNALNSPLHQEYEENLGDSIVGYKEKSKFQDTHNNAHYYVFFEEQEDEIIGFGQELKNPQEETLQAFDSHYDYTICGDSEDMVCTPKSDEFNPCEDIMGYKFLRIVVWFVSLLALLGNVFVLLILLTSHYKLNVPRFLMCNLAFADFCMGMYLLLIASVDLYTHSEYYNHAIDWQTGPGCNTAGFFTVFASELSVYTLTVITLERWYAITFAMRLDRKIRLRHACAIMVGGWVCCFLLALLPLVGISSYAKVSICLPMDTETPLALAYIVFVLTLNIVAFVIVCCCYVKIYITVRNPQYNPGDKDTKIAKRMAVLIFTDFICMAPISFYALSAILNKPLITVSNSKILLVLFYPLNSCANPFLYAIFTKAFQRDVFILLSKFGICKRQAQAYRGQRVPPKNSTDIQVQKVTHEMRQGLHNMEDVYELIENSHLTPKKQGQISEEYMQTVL

In the case of COc1ccc(C2Nc3ccc(NC(=O)CO)cc3C(=O)N2Cc2cccc(Cl)c2)cc1COc1ccc(NC(C)=O)cc1 (centres unmarked) [Structure 36], the AC50 (HTRF cAMP, read-out: AC50) is reported as 5.62 µM and the Emax is reported as 115%.
With COc1ccc2c(c1OC)C(=O)N1c3ccccc3C(=O)N(Cc3ccco3)C21 (centres unmarked) [Structure 158] the AC50 (HTRF cAMP) was “inactive”.
With COc1ccc(C2Nc3ccc(Cl)cc3C(=O)N2Cc2ccccc2)cc1COc1ccc(NC(C)=O)cc1 (centres unmarked) [Structure 119] the “Maximum Activity compared to TSH” value was 56.31 and the AC50 (HTRF cAMP, read-out: AC50) was 14.1 µM.
COc1ccc(C2Nc3ccccc3C(=O)N2Cc2ccccc2)cc1COc1cccc(C)c1 (centres unmarked) [Structure 200] was tested, and the “Maximum Activity compared to TSH” value was 38.00 and the AC50 (HTRF cAMP, read-out: AC50) was 28.2 µM.
For COc1ccc(CN(Cc2ccccc2)C(=O)c2ccco2)cc1COc1ccc(NC(C)=O)cc1 [Structure 41], the “Maximum Activity compared to TSH” value was 122.50 and the AC50 (HTRF cAMP, read-out: AC50) was 15.8 µM.
COc1ccc(C2Nc3ccccc3C(=O)N2Cc2ccccc2)cc1COc1ccc(NC(=O)c2ccccc2)cc1 (centres unmarked) [Structure 263] was tested, and the AC50 (HTRF cAMP) was “inactive”.
COc1ccc(CN2C(=O)c3ccccc3NC2c2ccc(OC)c(COc3ccc(NC(C)=O)cc3)c2)cc1 (centres unmarked) [Structure 3] was tested, and the “Maximum Activity compared to TSH” value was 93.95 and the AC50 (HTRF cAMP, read-out: AC50) was 4.47 µM.
For COc1ccc(C(=O)N(Cc2ccco2)Cc2ccco2)c(O)c1 [Structure 121], the “Maximum Activity compared to TSH” value was 38.00 and the AC50 (HTRF cAMP, read-out: AC50) was 39.8 µM.
O=C(c1ccccc1O)N(Cc1ccco1)Cc1ccco1 [Structure 219] was tested, and the AC50 (HTRF cAMP) was “inactive”.
For COc1ccc(C2Nc3ccccc3C(=O)N2Cc2ccco2)cc1COc1ccc(NC(C)=O)cc1 (centres unmarked) [Structure 9], the “Maximum Activity compared to TSH” value was 115.62 and the AC50 (HTRF cAMP, read-out: AC50) was 17.8 µM.
COc1cccc(-c2nc(SC)nc3sc(C(=O)NC(C)(C)C)c(N)c23)c1 [Structure 240] was tested, and the AC50 (HTRF cAMP) was “inactive”.
COc1ccc(C(=O)N(Cc2ccccc2)Cc2ccccc2)cc1COc1ccc(NC(C)=O)cc1 [Structure 120] showed an AC50 (HTRF cAMP, read-out: AC50) of 15.8 µM and an Emax of 40.5%.
In the case of COc1ccc(C2Nc3ccccc3C(=O)N2Cc2ccccc2)cc1CSc1ccc(NC(C)=O)cc1 (centres unmarked) [Structure 38], the “Maximum Activity compared to TSH” value is reported as 573.36 and the AC50 (HTRF cAMP, read-out: AC50) is reported as 7.08 µM.
COc1ccc(C2Nc3ccccc3C(=O)N2Cc2ccco2)cc1COc1c(C)cccc1C (centres unmarked) [Structure 284] was tested, and the AC50 (HTRF cAMP) was “inactive”.
In the case of COc1ccc(-c2nc3ccccc3c(=O)n2Cc2ccco2)cc1COc1ccc(NC(C)=O)cc1 [Structure 47], the “Maximum Activity compared to TSH” value is reported as 165.16 and the AC50 (HTRF cAMP, read-out: AC50) is reported as 25.1 µM.
For COc1ccc(CN(Cc2ccccc2)C(=O)c2ccncc2)cc1COc1ccc(NC(C)=O)cc1 [Structure 117], the “Maximum Activity compared to TSH” value was 87.19 and the AC50 (HTRF cAMP, read-out: AC50) was 44.7 µM.
In the case of COc1ccc(C2Nc3ccccc3C(=O)N2CCc2ccccc2)cc1COc1ccc(NC(C)=O)cc1 (centres unmarked) [Structure 70], the “Maximum Activity compared to TSH” value is reported as 53.96 and the AC50 (HTRF cAMP, read-out: AC50) is reported as 10 µM.
With CCCCN1C(=O)c2ccccc2NC1c1ccc(OC)c(COc2ccc(NC(C)=O)cc2)c1 (centres unmarked) [Structure 16] the “Maximum Activity compared to TSH” value was 97.95 and the AC50 (HTRF cAMP, read-out: AC50) was 20 µM.
COc1ccc(C2Nc3ccccc3C(=O)N2CCc2ccc(Cl)cc2Cl)cc1COc1ccc(NC(C)=O)cc1 (centres unmarked) [Structure 225] was tested, and the AC50 (HTRF cAMP) was “inactive”.
With COc1ccc(C2Nc3ccc(NC(=O)COC(C)=O)cc3C(=O)N2Cc2ccccc2)cc1COc1ccc(NC(C)=O)cc1 (centres unmarked) [Structure 48] the “Maximum Activity compared to TSH” value was 106.48 and the AC50 (HTRF cAMP, read-out: AC50) was 8.91 µM.
In the case of COc1ccc(C2Nc3ccccc3C(=O)N2Cc2ccccc2)cc1COc1ccc(C)cc1 (centres unmarked) [Structure 232], the AC50 (HTRF cAMP) is reported as “inactive”.
With O=C1CC(c2ccco2)CC2=C1C(c1ccncc1)n1nc(C(F)(F)F)nc1C2 (centres unmarked) [Structure 244] the AC50 (HTRF cAMP) was “inactive”.
COc1ccc(C2Nc3ccccc3C(=O)N2Cc2ccc(Cl)cc2)cc1COc1ccc(NC(C)=O)cc1 (centres unmarked) [Structure 77] was tested, and the “Maximum Activity compared to TSH” value was 68.63 and the AC50 (HTRF cAMP, read-out: AC50) was 3.16 µM.
With COc1ccc(CN2C(=O)N(c3ccccc3)C(=O)C2c2ccccc2)cc1COc1ccc(NC(C)=O)cc1 (centres unmarked) [Structure 293] the AC50 (HTRF cAMP) was “inactive”.
O=C(c1ccccc1O)N(Cc1ccccc1)Cc1cccs1 [Structure 142] was tested, and the AC50 (HTRF cAMP, read-out: AC50) was 20 µM and the Emax was 34%.
COc1ccc(C2Nc3ccccc3C(=O)N2Cc2ccccc2)cc1COc1ccc(NC(C)=O)cc1 (single isomer, unassigned) [Structure 49] was tested, and the “Maximum Activity compared to TSH” value was 134.24 and the AC50 (AC50, HTRF cAMP) was 3.55 µM.
COc1ccc(C2Nc3ccccc3C(=O)N2Cc2ccc(C(C)(C)C)cc2)cc1COc1ccc(NC(C)=O)cc1 (centres unmarked) [Structure 214] was tested, and the AC50 (HTRF cAMP) was “inactive”.
For COc1ccc(C2Nc3ccccc3C(=O)N2Cc2ccco2)cc1 (centres unmarked) [Structure 156], the AC50 (HTRF cAMP) was “inactive”.
With COc1ccc(-c2nc3cccc(OC)c3c(=O)n2Cc2ccccc2)cc1COc1ccc(NC(C)=O)cc1 [Structure 218] the AC50 (HTRF cAMP, read-out: AC50) was 39.8 µM and the Emax was 38%.
For COc1ccc(CN(Cc2ccccc2)C(=O)c2ccncc2)cc1COc1ccc(NC(C)=O)cc1 [Structure 69], the “Maximum Activity compared to TSH” value was 44.83 and the AC50 (HTRF cAMP, read-out: AC50) was 25.1 µM.
In the case of O=C1CC(c2ccco2)CC2=C1C(c1ccc(O)cc1)n1nc(C(F)(F)F)nc1N2 (centres unmarked) [Structure 213], the AC50 (HTRF cAMP) is reported as “inactive”.
COc1ccc(CN(Cc2ccccc2)C(=O)c2ccccc2O)cc1 [Structure 169] was tested, and the AC50 (HTRF cAMP, read-out: AC50) was 50.1 µM and the Emax was 34%.
For COc1ccc(CN(Cc2ccccc2)C(=O)CN2CCN(C)CC2)cc1COc1ccc(NC(C)=O)cc1 [Structure 145], the AC50 (HTRF cAMP) was “inactive”.
For COc1ccc(C2Nc3ccccc3C(=O)N2Cc2ccccc2)cc1COc1ccc(Cl)cc1 (centres unmarked) [Structure 238], the AC50 (HTRF cAMP) was “inactive”.
In the case of COc1ccc2c(c1OC)C(=O)N1c3ccccc3C(=O)N(Cc3ccco3)C21 (centres unmarked) [Structure 217], the AC50 (HTRF cAMP) is reported as “inactive”.
With COc1ccc(-c2nc3ccccc3c(=O)n2Cc2ccccc2)cc1OCc1ccc(NC(C)=O)cc1 [Structure 195] the AC50 (HTRF cAMP) was “inactive”.
COc1ccc(-c2nc3ccccc3c(=O)n2Cc2ccc(CNC(=O)CO)cc2)cc1COc1ccc(NC(C)=O)cc1 [Structure 116] gave an AC50 (HTRF cAMP, read-out: AC50) of 35.5 µM and an Emax of 54.6%.
With COc1ccc(-c2nc3ccccc3c(=O)n2Cc2ccccc2)cc1CNc1ccc(CC(C)=O)cc1 [Structure 82] the AC50 (HTRF cAMP, read-out: AC50) was 25.1 µM and the Emax was 59%.
For COc1ccc(C2Nc3ccccc3C(=O)N2CCO)cc1COc1ccc(NC(C)=O)cc1 (centres unmarked) [Structure 209], the AC50 (HTRF cAMP) was “inactive”.
For COc1ccc(C2Nc3ccccc3C(=O)N2Cc2ccccc2)cc1COc1ccc(NC(C)=O)cc1 (single isomer, unassigned) [Structure 24], the “Maximum Activity compared to TSH” value was 159.76 and the AC50 (AC50, HTRF cAMP) was 7.08 µM.
For COc1ccc(-c2nc3ccc(NC(C)=O)cc3c(=O)n2Cc2cccc(Cl)c2)cc1COc1ccc(NC(C)=O)cc1 [Structure 110], the “Maximum Activity compared to TSH” value was 48.00 and the AC50 (HTRF cAMP, read-out: AC50) was 22.4 µM.
O=C(c1ccccc1O)N(Cc1ccco1)Cc1cccs1 [Structure 154] was tested, and the AC50 (HTRF cAMP) was “inactive”.
For COc1ccc(C2Nc3ccccc3C(=O)N2Cc2ccccc2C)cc1COc1ccc(NC(C)=O)cc1 (centres unmarked) [Structure 139], the AC50 (HTRF cAMP) was “inactive”.
For COc1ccc(C2Nc3ccccc3C(=O)N2Cc2ccccc2)cc1COc1ccc(NC(C)=O)cc1 (single isomer, unassigned) [Structure 63], the “Maximum Activity compared to TSH” value was 166.46 and the AC50 (AC50, HTRF cAMP) was 5.01 µM.
COc1ccc(C2Nc3ccccc3C(=O)N2Cc2cccc(C(F)(F)F)c2)cc1COc1ccc(NC(C)=O)cc1 (centres unmarked) [Structure 27] was tested, and the “Maximum Activity compared to TSH” value was 123.52 and the AC50 (HTRF cAMP, read-out: AC50) was 4.47 µM.
In the case of COc1ccc(C2Nc3ccccc3C(=O)N2Cc2ccccc2)cc1COc1ccc(NC(C)=O)cc1 (single isomer, unassigned) [Structure 55], the “Maximum Activity compared to TSH” value is reported as 194.91 and the AC50 (AC50, HTRF cAMP) is reported as 7.94 µM.
With COc1ccc(C2Nc3ccccc3C(=O)N2Cc2ccccc2)cc1COc1ccc(NC(=O)c2ccccc2)cc1 (centres unmarked) [Structure 264] the AC50 (HTRF cAMP) was “inactive”.
